The subject of one series is Sna3-GFP. As to the kind of experiment: Immunoblot analysis of Sna3-GFP polyubiquitination in WT and α-syn cells. The series is classed as cell-based, yeast. As to conditions: FIG. 11B. As to the method:
(§1) Protein analysis was performed in NoTox and HiTox strains with the compound treatment at indicated concentrations. Log phase CSM/2% raffinose cultures were induced with 2% galactose for 5 hours with DMSO or the compounds. Cultures were normalized to cell density and cell pellets prepared for SDS-PAGE. Cell pellets were boiled in SDS-loading dye for 15′, centrifuged, and resolved by 4-12% SDS-PAGE. CPY western blots were performed using culture conditions as described above. An anti-Cpy antibody (Invitrogen, A6428) was used at 1:5,000. Post-ER:ER ratios were quantitated using an IRDye800 secondary antibody (Li-Cor Odyssey, Rockland Immunochemicals) and scanned with the Li-Cor Odyssey imaging system. Significance was determined using a one-way ANOVA and Tukey's test of significance. From the same gel, total protein was detected by coomassie staining. Both blots and coomassie-stained gels were scanned using the Li-Cor Odyssey imaging system and quantitated. Significance was determined using a one-way ANOVA with Tukey's test of significance.
In WT Sna3-GFP cells, log phase CSMRaf cultures were shifted to galactose for 5 hours in the presence or absence of the compounds. Cell pellets were lysed in SDS-loading dye and Sna3-GFP cleavage monitored by Western blotting with an anti-GFP antibody. […]
A general note: Immunoblotting shows a protein as a band on a membrane.

Another series deals with Carboxypeptidase Y (CPY). As to the kind of experiment: Western blot of Carboxypeptidase Y (CPY) trafficking. The series is classed as cell-based, yeast. As to conditions: FIG. 11D. The procedure:
as §1

A further series has as its system WT control yeast strain. The experiment in a line: Toxicity profile on WT control yeast strain (growth). The series is classed as cell-based. The settings on record: FIGS. 9A-9B. The procedure: Yeast Growth assays: Starting cultures for all dose-response assays were based on strains initially constructed in the lab to maintain homogeneity across experiments. All growth assays were carried out in 384 well format. Source plates were assembled in 96 well plates using multichannel pipettes to dilute rows in 1.6-fold serial dilutions of CSMGal. To these dilution series containing 2× final concentration of compound, 2×OD600 culture (in CSMGal) was dispensed with a multichannel pipette to achieve a final drug/culture mix with the desired OD600 and drug concentration. For WT yeast, the final starting OD600 was 0.01. For α-syn, the final starting OD600 was 0.02. Drug concentration ranges varied depending on efficacy, growth inhibition, and solubility in media. […] Plates were then read with a Tecan Saphire plate reader at OD600.
Raw OD600 values were transformed to “Relative Growth” in WT cells or “% Maximum Rescue” in α-syn experiments. […] All experimental data points were then calculated by (OD600Exp−OD600untreated/(OD600Max−OD600untreated)×100 to obtain rescue relative to maximum rescue observed. Dose-response curves were generated by nonlinear regression analysis using Prism Graphpad v. 6.0. In cases where the compounds began inhibiting growth, only points up to the maximum were used to fit the curve. Above that, points were directly connected and are always presented as dotted lines.

For series [1], the system named is K63 linkages in human HEK-293 cells. The experiment in a line: Ubiquitin chain linkages in HEK-293 cells. The series is classed as cell-based. As to conditions: 5 μM for 12 hours, FIG. 13B. As to the method:
(§2) Human HEK-293 or neuronal cells treated with the appropriate compounds, were washed twice with ice cold PBS and then 0.5 ml of Lysis buffer was added and cells were scraped off the 10 cm dish (1 ml for 15 cm).
(§3) Lysis buffer is 50 mM Tris/HCl pH 7.5, 1 mM EGTA, 1 mM EDTA, 0.5 or 1% (v/v) NP-40, 1 mM sodium orthovanadate, 50 mM NaF, 5 mM sodium pyrophosphate, 0.27 M sucrose, 10 mM sodium 2-glycerophosphate, 0.2 mM phenylmethylsulphonyl fluoride, 1 mM benzamidine, plus 100 mM iodoacetamide added fresh prior to lysis (weight powder, don't use a frozen stock solution) to inactivate deubiquitylase activities and add also pepstatin/aprotinin to inhibit proteases. Cell extracts were sonicated twice for 15 seconds each time and clarified by centrifugation at 14000 g for 15 min at 4° C. Supernatants were collected and filtered using a 0.45 uM MiniSart/Syringe. Next, protein concentrations were determined by Bradford procedure.
The avidity based K63 linkage sensor protein was based on Sims et. al, 2012. Briefly, avidity based K63 sensor Halo-fusion protein was expressed in an E. coli expression vector and covalently bound to Halo-tag beads [Magne® HaloTag® Beads, 20% Slurry; Cat #G7281]. […] The eluate is heated at 75° C. for 5 min and analysed by immuno-blotting using an anti-K63 linkage specific antibody (http://www.abcam.com/ubiquitin-linkage-specific-k63-epr8590-448-antibody-ab179434.html). […]

For series [2], the system named is aSyn-expressing yeast cells. The experiment in a line: Morphological analysis of aSyn-expressing yeast cells. The series is classed as cell-based. The settings on record: 10 uM, galactose induction five hours, FIG. 10. As to the method: Raffinose cultures of α-syn expressing yeast cells were grown up to the logarithmic phase in raffinose. Cultures were induced with galactose for five hours in the presence or absence of the indication concentration of the compounds. In the present example, the identified compounds were present at a concentration of 10 uM. Cells were centrifuged, media discarded, and then fixed with 4% paraformaldehyde in 1×PBS for 1 hr. The fixed culture was centrifuged, and the pellet resuspended in 0.4% paraformaldehyde in 1×PBS and kept at 4° C.

The test system of series [3] is K63 linkages in iPS derived human neurons. The experiment in a line: K63-Ub linkages in human iPS derived neuronal cultures (immunoblot). The series is classed as cell-based. The settings on record: 5 μM for 12 hours, FIG. 13A. The procedure: as §2, §3
The avidity based K63 linkage sensor protein was based on Sims et. al, 2012. Briefly, avidity based K63 sensor Halo-fusion protein was expressed in an E. coli expression vector and covalently bound to Halo-tag beads [Magne® HaloTag® Beads, 20% Slurry; Cat #G7281]. […] After incubation, the beads were washed three times with 1 ml of Lysis buffer containing 500 mM NaCl and once with 0.5 ml of 10 mM Tris/HCl pH 8.0. […] The eluate is heated at 75° C. for 5 min and analysed by immuno-blotting using an anti-K63 linkage specific antibody (http://www.abcam.com/ubiquitin-linkage-specific-k63-epr8590-448-antibody-ab179434.html).
Pure neuronal cultures derived from human iPS cells were treated with DMSO, DES-2877, DES-4114 and #32 at 5 μM for 12 hours. […] Ubiquitylation site identification by mass spectrometry was performed as described Kim et al., (Systematic and quantitative assessment of the ubiquitin-modified proteome. Mol Cell. 2011; 44:325-340). and Sarraf et al., (Landscape of the PARKIN-dependent ubiquitylome in response to mitochondrial depolarization. Nature. 2013; 496:372-376).

Series [4] has as its system α-synuclein-expressing yeast. The experiment in a line: α-synuclein toxicity rescue in yeast (growth, OD600). Format: cell-based. As to conditions: FIGS. 8A-8B. The procedure:
Yeast Strains and culturing: Yeast strains expressing alpha-synuclein have been described in Cooper at. al, 2006. (Cooper A A, et al. Alpha-synuclein blocks ER-Golgi traffic and Rab1 rescues neuron loss in Parkinson's models. Science. 2006 Jul. 21; 313:324) Strains express multiple copies of alpha-synculein for galactose-inducible expression. […] Yeast were cultured in complete synthetic media (CSM) and an appropriate dropout (lacking histidine or uracil) to maintain plasmids if required. For galactose-induction experiments, overnight cultures were grown in CSM/2% glucose to saturation and diluted 1:20 into CSM/2% raffinose for ˜2 generations. Cultures were then diluted into CSM/2% galactose at an optimum OD600 for the experiment (see ‘Growth assays’).
Yeast Growth assays: Starting cultures for all dose-response assays were based on strains initially constructed in the lab to maintain homogeneity across experiments. All growth assays were carried out in 384 well format. Source plates were assembled in 96 well plates using multichannel pipettes to dilute rows in 1.6-fold serial dilutions of CSMGal. To these dilution series containing 2× final concentration of compound, 2×OD600 culture (in CSMGal) was dispensed with a multichannel pipette to achieve a final drug/culture mix with the desired OD600 and drug concentration. For WT yeast, the final starting OD600 was 0.01. For α-syn, the final starting OD600 was 0.02. Drug concentration ranges varied depending on efficacy, growth inhibition, and solubility in media. A Tecan EvoFreedom liquid handling robot was then used to transfer culture from 96 to 384 well format with each well being represented four times. Final well volume was 35 μL. Plates were then incubated in humidified containers at 30° C. for either 24 or 40 hours. Plates were then read with a Tecan Saphire plate reader at OD600.
Raw OD600 values were transformed to “Relative Growth” in WT cells or “% Maximum Rescue” in α-syn experiments. In WT cells, the well background was subtracted and all values were then normalized to 100% for the untreated condition. In α-syn rescue experiments, the well background was subtracted and the maximum rescue in the particular experiment was normalized to 100%.

Results on one compound are retold here after patent publication US20200375996A1, “METHOD OF TREATING NEURODEGENERATIVE DISORDERS BY RESCUING ALPHA-SYNUCLEIN TOXICITY” (D.E. Shaw Research, LLC, priority 2015, published 2020).

As for `COc1cc(Cl)cc(/C=N/Nc2nc(Nc3ccc(C)cc3Br)nc(N3CCOCC3)n2)c1O` [DES-4114], the “polyubiquitinated Sna3-GFP” value with Sna3-GFP was “increase”. The “accumulation of CPY trafficking intermediates en route to the vacuole” value in the series with Carboxypeptidase Y (CPY) was “increase”. Besides, the “toxicity on WT control yeast strain (in words)” value in the series on WT control yeast strain is recorded as “least toxic among active analogs”. Moreover, the “K63 linkages in human HEK-293 cells” value in series [1] was “modest increase”. Moreover, the “morphology: vesicular intermediates in yeast cells” value in series [2] is given as “accumulation of vesicular intermediates”. Moreover, the “K63 linkages in iPS derived human neurons” value in series [3] is “modest increase”. In series [4], the “rescue of aSyn toxicity in yeast (in words)” value is “most effective”.
